Here are results for 19 molecules from US20230019491A1, “PYRIMIDINE TBK/IKKe INHIBITOR COMPOUNDS AND USES THEREOF” (Merck Patent GmbH, priority 2017, published 2023).

pIC50: −log10 of the molar value.

In one assay the target is T1, TBK1 (Homo sapiens, UniProt Q9UHD2).
T1 sequence (Q9UHD2 1-729): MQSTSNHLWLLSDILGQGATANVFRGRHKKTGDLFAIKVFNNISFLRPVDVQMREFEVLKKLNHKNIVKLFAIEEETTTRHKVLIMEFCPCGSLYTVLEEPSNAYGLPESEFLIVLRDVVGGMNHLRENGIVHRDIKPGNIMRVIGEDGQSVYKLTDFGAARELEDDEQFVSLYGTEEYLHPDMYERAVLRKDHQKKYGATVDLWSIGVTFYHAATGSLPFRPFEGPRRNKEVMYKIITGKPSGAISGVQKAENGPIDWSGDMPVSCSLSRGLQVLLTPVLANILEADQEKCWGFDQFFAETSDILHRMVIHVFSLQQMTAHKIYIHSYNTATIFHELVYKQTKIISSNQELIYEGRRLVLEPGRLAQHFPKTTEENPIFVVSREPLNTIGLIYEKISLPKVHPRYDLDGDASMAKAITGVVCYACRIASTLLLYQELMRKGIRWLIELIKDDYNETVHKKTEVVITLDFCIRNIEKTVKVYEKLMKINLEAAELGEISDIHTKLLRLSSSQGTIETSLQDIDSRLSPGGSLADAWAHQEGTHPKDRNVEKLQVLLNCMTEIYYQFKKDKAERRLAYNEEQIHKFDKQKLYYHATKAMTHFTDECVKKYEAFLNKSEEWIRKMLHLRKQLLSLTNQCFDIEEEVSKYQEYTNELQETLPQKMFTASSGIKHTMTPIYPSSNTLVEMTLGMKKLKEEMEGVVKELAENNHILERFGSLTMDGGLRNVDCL
Description: TBK biochemical assay. To be noted: 10 point 1:4 dose response, 30 uM top concentration, 90 min at 25° C., LabChip EZ Reader II; read-out: TBK1_IC50. How it is done: (§1) Test compounds were transferred into Labcyte polypropylene 384 well plates (P055-25) and diluted to 3 mM using DMSO. […] 100 uM of a reference compound (1 uM final high concentration). Backfilling was performed if necessary so that all wells contain 1% DMSO final:
add 75 nl DMSO/well into columns 1, 2 and 24 using Labcyte Echo. add 75 nl 1.0 mM staurosporine/well into column 23 using Labcyte Echo ([…]) add 4.5 ul enzyme/well using multidrop dispenser add 3 ul substrate/well using multidrop dispenser incubate at 25° C. in Heidolph incubator for 90 min. add 7.5 ul 2× stop buffer using multidrop dispenser read on labchip ez reader II using TBK1.job
(§2) Raw data files were opened in the Caliper LabChip Reviewer program (Version 3.0.265.0 SP2) and peak assignments were adjusted to reflect “substrate first” with the software's post-run analysis options. A spline-fit baseline was applied using the software's analysis algorithm.

In another assay the target is T2, IKKε (Homo sapiens, UniProt Q14164).
T2 sequence (Q14164 1-716): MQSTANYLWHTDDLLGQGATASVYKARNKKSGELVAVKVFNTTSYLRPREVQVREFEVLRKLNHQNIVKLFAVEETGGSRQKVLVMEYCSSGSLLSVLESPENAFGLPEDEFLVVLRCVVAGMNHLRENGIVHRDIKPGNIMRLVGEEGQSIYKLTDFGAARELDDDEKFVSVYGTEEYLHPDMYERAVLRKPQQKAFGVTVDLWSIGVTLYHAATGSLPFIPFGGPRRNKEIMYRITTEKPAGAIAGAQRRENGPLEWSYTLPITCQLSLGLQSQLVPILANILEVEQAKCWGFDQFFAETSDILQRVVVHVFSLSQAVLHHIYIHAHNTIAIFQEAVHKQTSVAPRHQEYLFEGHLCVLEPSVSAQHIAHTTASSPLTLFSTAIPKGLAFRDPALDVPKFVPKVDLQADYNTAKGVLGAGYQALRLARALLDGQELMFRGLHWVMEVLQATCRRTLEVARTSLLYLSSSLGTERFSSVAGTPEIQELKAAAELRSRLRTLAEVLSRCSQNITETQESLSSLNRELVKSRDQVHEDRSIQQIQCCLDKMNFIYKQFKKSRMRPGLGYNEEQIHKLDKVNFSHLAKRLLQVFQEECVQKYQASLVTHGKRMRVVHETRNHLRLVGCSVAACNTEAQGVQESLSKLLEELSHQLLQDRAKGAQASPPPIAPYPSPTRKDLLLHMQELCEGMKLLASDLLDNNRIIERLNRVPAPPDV
The experiment in a line: IKKε biochemical assay. To be noted: 10 point 1:4 dose response, 30 uM top concentration, 90 min at 25° C., LabChip EZ Reader II; read-out: IKKε_IC50. On the procedure:
as §1
add 75 nl DMSO/well into columns 1, 2 and 24 using Labcyte Echo. add 75 nl 1.0 mM staurosporine/well into column 23 using Labcyte Echo (10 uM final) add 4.5 ul enzyme/well using multidrop dispenser add 3 ul substrate/well using multidrop dispenser incubate at 25° C. for 90 min. add 7.5 ul 2× stop buffer read on labchip ez reader II using IKKε.
as §2

For `COc1nc(Nc2nccc(-c3ccc(OC4CCOCC4)c(C#N)c3)n2)ccc1C(=O)N1CC2CCC(C1)O2` [Example 10, 5-(2-[[6-methoxy-5-([8-oxa-3-azabicyclo[3.2.1]octan-3-yl]carbonyl)pyridin-2-yl]amino]pyrimidin-4-yl)-2-(oxan-4-yloxy)benzonitrile], the pIC50 at TBK1 and on IKKε was more than 7.00 each time.

Turning to `COc1nc(Nc2nccc(-c3ccc(OC4CCOCC4)c(C#N)c3)n2)ccc1C(=O)N1CC2CCC1CO2` (centres unmarked) [Example 11, 5-(2-[[6-methoxy-5-([2-oxa-5-azabicyclo[2.2.2]octan-5-yl]carbonyl)pyridin-2-yl]amino]pyrimidin-4-yl)-2-(oxan-4-yloxy)benzonitrile], the pIC50 on TBK1 and on IKKε was more than 7.00 throughout.

Consider `COc1nc(Nc2nccc(-c3ccc(OC4CCOCC4)c(C#N)c3)n2)ccc1C(=O)N1CC2COCC2C1` (centres unmarked) [Example 12, 5-(2-[[5-([hexahydro-1H-furo[3,4-c]pyrol-5-yl]carbonyl)-6-methoxypyridin-2-yl]amino]pyrimidin-4-yl)-2-(oxan-4-yloxy)benzonitrile], for which the pIC50 at TBK1 and at IKKε was more than 7.00 in each case.

With `COc1nc(Nc2nccc(-c3ccc(OC4CCOCC4)c(C#N)c3)n2)ccc1C(=O)N1CCC(C(=O)O)CC1` [Example 13], the pIC50 on TBK1 and at IKKε was more than 7.00 throughout.

`COc1nc(Nc2nccc(-c3ccc(OC4CCOCC4)c(C#N)c3)n2)ccc1C(=O)NC1CCN(C)CC1` [Example 14, 6-([4-[3-cyano-4-(oxan-4-yloxy)phenyl]pyrimidin-2-yl]amino)-2-methoxy-N-(1-methylpiperidin-4-yl)pyridine-3-carboxamide]: the pIC50 on TBK1 and on IKKε was more than 7.00 each time.

`COc1nc(Nc2nccc(-c3ccc(OC4CCOCC4)c(C#N)c3)n2)ccc1C(=O)N1CCN(CCO)CC1` [Example 15, 5-(2-{5-[4-(2-Hydroxy-ethyl)-piperazine-1-carbonyl]-6-methoxy-pyridin-2-ylamino}-pyrimidin-4-yl)-2-(tetrahydro-pyran-4-yloxy)-benzonitrile]: the pIC50 at TBK1 and at IKKε was more than 7.00 throughout.

For `COc1nc(Nc2nccc(-c3ccc(OC4CCOCC4)c(C#N)c3)n2)ccc1C(=O)N1C2CCCC1COC2` [Example 16, 5-(2-[[6-methoxy-5-([3-oxa-9-azabicyclo[3.3.1]nonan-9-yl]carbonyl)pyridin-2-yl]amino]pyrimidin-4-yl)-2-(oxan-4-yloxy)benzonitrile], the pIC50 at TBK1 and at IKKε was more than 7.00 in each case.

On to `COc1nc(Nc2nccc(-c3ccc(OC4CCOCC4)c(C#N)c3)n2)ccc1C(=O)N1C2COCC1CC(O)C2` (centres unmarked) [Example 17, 5-(2-[[5-([7-hydroxy-3-oxa-9-azabicyclo[3.3.1]nonan-9-yl]carbonyl)-6-methoxypyridin-2-yl]amino]pyrimidin-4-yl)-2-(oxan-4-yloxy)benzonitrile], for which the pIC50 at TBK1 and on IKKε was more than 7.00 in each case.

`COc1nc(Nc2nccc(-c3ccc(OC4CCOCC4)c(C#N)c3)n2)ccc1C(=O)N1CC2CCC1CN2C` (centres unmarked) [Example 18, 5-(2-[[6-methoxy-5-([5-methyl-2,5-diazabicyclo[2.2.2]octan-2-yl]carbonyl)pyridin-2-yl]amino]pyrimidin-4-yl)-2-(oxan-4-yloxy)benzonitrile]: the pIC50 at TBK1 and at IKKε was more than 7.00 each time.

`COc1nc(Nc2nccc(-c3ccc(OC4CCOCC4)c(C#N)c3)n2)ccc1C(=O)N[C@H]1[C@@H]2C[C@H]1CN(C)C2` [Example 19, 6-([4-[3-cyano-4-(oxan-4-yloxy)phenyl]pyrimidin-2-yl]amino)-2-methoxy-N-[(1R,5S,6R)-3-methyl-3-azabicyclo[3.1.1]heptan-6-yl]pyridine-3-carboxamide]: the pIC50 on TBK1 and on IKKε was more than 7.00 throughout.

For `COc1nc(Nc2nccc(-c3ccc(OC4CCOCC4)c(C#N)c3)n2)ccc1C(=O)N[C@@H]1[C@@H]2C[C@H]1CN(C)C2` [Example 20, 6-([4-[3-cyano-4-(oxan-4-yloxy)phenyl]pyrimidin-2-yl]amino)-2-methoxy-N-[(1R,5S,6S)-3-methyl-3-azabicyclo[3.1.1]heptan-6-yl]pyridine-3-carboxamide], the pIC50 at TBK1 and on IKKε was more than 7.00 in each case.

Take `COc1nc(Nc2nccc(-c3ccc(OC4CCOCC4)c(C#N)c3)n2)ccc1C(=O)NC1CN2CCC1CC2` (centres unmarked) [Example 21, 6-((4-(3-cyano-4-((tetrahydro-2H-pyran-4-yl)oxy)phenyl)pyrimidin-2-yl)amino)-2-methoxy-N-(quinuclidin-3-yl)nicotinamide]: the pIC50 on TBK1 and at IKKε was more than 7.00 each time.

On to `CN(C)C(=O)c1ccc(Nc2nccc(-c3ccc(OC4CCOCC4)c(C#N)c3)n2)nc1` [Example 22, 6-([4-[3-cyano-4-(oxan-4-yloxy)phenyl]pyrimidin-2-yl]amino)-N,N-dimethylpyridine-3-carboxamide], for which the pIC50 at TBK1 and on IKKε was 6.00 to 7.00 throughout.

As to `CN(C)C(=O)c1ccc(Nc2nccc(-c3ccc(OC4CCOCC4)c(C#N)c3)n2)cn1` [Example 23, 5-([4-[3-cyano-4-(oxan-4-yloxy)phenyl]pyrimidin-2-yl]amino)-N,N-dimethylpyridine-2-carboxamide], the pIC50 at TBK1 and at IKKε was more than 7.00 throughout.

Turning to `COc1cc(Nc2nccc(-c3ccc(OC4CCOCC4)c(C#N)n3)n2)ncc1C(=O)N(C)C` [Example 24, 6-([4-[6-cyano-5-(oxan-4-yloxy)pyridin-2-yl]pyrimidin-2-yl]amino)-4-methoxy-N,N-dimethylpyridine-3-carboxamide], the pIC50 at TBK1 and at IKKε was 6.00 to 7.00 in each case.

On to `COc1cc(Nc2nccc(-c3ccc(OC4CCOCC4)c(C#N)n3)n2)cnc1C(=O)N(C)C` [Example 25, 5-([4-[6-cyano-5-(oxan-4-yloxy)pyridin-2-yl]pyrimidin-2-yl]amino)-3-methoxy-N,N-dimethylpyridine-2-carboxamide], for which the pIC50 on TBK1 and on IKKε was more than 7.00 throughout.

Consider `COc1nc(Nc2nccc(-c3ccc(OC4CCOCC4)c(C#N)n3)n2)ccc1C(=O)N(C)C` [Example 26, 6-([4-[6-cyano-5-(oxan-4-yloxy)pyridin-2-yl]pyrimidin-2-yl]amino)-2-methoxy-N,N-dimethylpyridine-3-carboxamide], for which the pIC50 on TBK1 and at IKKε was more than 7.00 in each case.

As for `CN(C)C(=O)c1ccc(Nc2nccc(-c3ccc(OC4CCOCC4)c(C#N)n3)n2)nc1` [Example 27, 6-([4-[6-cyano-5-(oxan-4-yloxy)pyridin-2-yl]pyrimidin-2-yl]amino)-N,N-dimethylpyridine-3-carboxamide], the pIC50 on TBK1 and on IKKε was 6.00 to 7.00 each time.

Turning to `CN(C)C(=O)c1ccc(Nc2nccc(-c3ccc(OC4CCOCC4)c(C#N)n3)n2)cn1` [Example 28, 5-([4-[6-cyano-5-(oxan-4-yloxy)pyridin-2-yl]pyrimidin-2-yl]amino)-N,N-dimethylpyridine-2-carboxamide], the pIC50 at TBK1 and on IKKε was more than 7.00 throughout.
